Some results are limits rather than exact numbers.

This is an account of results in patent US10647680B2, “Urea compound, preparation method therefor and medical use thereof” (Ancureall Pharmaceutical (Shanghai) Co., Ltd., priority 2016, dated 2020).

Type in all cases: cell-based
In assay [1] the test system is H1299 (NRAS Q61K mutant type). Nature of the assay: In vitro growth inhibition (GI50), H1299. As to conditions: Homo sapiens, NCI-H1299. The source says:
(§1) Tumor cell line is an effective cell model for studying the inhibition of tumor cell growth or proliferation in vitro. In the present invention, a representative tumor cell line was selected to determine the cell growth inhibition activity of the present compound. All cell lines used were from ATCC, DSMZ, and the Cell Bank of the Chinese Academy of Sciences. Cell culture conditions and methods were in accordance with the requirements of each cell line. Cells were subcultured in vitro for no more than 3 passages each time, and as required, single-clone purification and identification of cell lines could be carried out.
(§2) The cell culture media used were RPMI1640 (Gibco), MEM (Gibco), McCOY'S5A (Gibco), and IMDM (Gibco). The complete medium was prepared by supplement with 5˜20% fetal calf serum (Gibco), 1% double-antibiotics (10000 units/mL penicillin and 10000 units/mL), 2 mM glutamine or 1 mM sodium pyruvate, respectively.
(§3) Human large cell lung cancer cell NCI-H460 (KRAS […] mutant type, ATCC), human non-small cell lung cancer cell line H1299 (NRAS Q61K mutant type, ATCC), human melanoma cell line A375 (BRAF V600E mutant type, Shanghai Cell Bank of Chinese Academy of Sciences), human colon cancer cell line HCT116 (KRAS G13D mutant type, Shanghai Cell Bank, Chinese Academy of Sciences) were cultured in a complete medium of 1×RPMI1640 (10% FBS), respectively. Human non-small cell lung cancer cells A549 (KRAS G12S mutant type, Shanghai Cell Bank, Chinese Academy of Sciences) were cultured in a complete medium of 1× Ham's supplemented with 10% FBS, 1% double antibody, and 2 mM glutamine.
(§4) Adherent cells were digested with 0.25% pancreatin-EDTA (Gibco). The suspension cells were collected by centrifugation. The supernatant was discarded and the cell pellet was resuspended and counted. Different cell concentrations (5˜10×10^4 cells/mL) were prepared according to the growth cycle of each cell line and then seeded on a 96-well plate (Corning), 100 μL/well. The cells were incubated overnight at 37° C., 5% CO2. The compounds were added to the cells on the second day with 2 wells in parallel. The final concentration of organic solvent shall not exceed 1%. The cells were continually incubated for 3 to 5 days, and then subjected to MTT assay.
(§5) The compound of the present invention and the control compound were dissolved in DMSO (Sigma) respectively, with the purity of more than 98%. The compound was stored in a concentration of 10 mM at −20° C. and diluted to 2- or 10-fold series prior to use.
(§6) Dojindo CCK8 reagent kit was used as MTT assay. THERMO […] FC meter was used as microplate reader.
(§7) For adherent cells, culture medium was removed and immediately replaced with the fresh prepared medium which contains 10% CCK8 reagent (100 μL/well). For the suspension cells, CCK8 was directly added to 10% of the final concentration. The cells were continually incubated for 1˜4 h. When a dark yellow color could be observed in the solvent control wells, the absorbance value at OD450 nm was measured and the cell growth rate was calculated according to the following formula: Cell Growth Rate (%)=100*(T−T0)/(C−T0) T=optical density of drug treatment cell well—optical density of blank control well; T0=optical density of cell well before drug treatment—optical density of blank control well; C=optical density of cell well of solvent control group—optical density of blank control well. The concentration value of 50% inhibition of cell growth (GI50) was calculated according to the drug concentration and cell growth rate curve. The experiment was independently repeated 1˜3 times, and subject to biological statistical analysis. 4. Experimental Results
(§8) Tumor cell growth inhibition test was performed by selecting representative compounds (compounds 4, 11, 12, 16, 27, 68, 71, 77, 79, 89 and 116 of the present invention). The initial concentration of the compound was 5,000 nM, then it was serially diluted by 2-fold or 10-fold to 0.01 nM. […]

Assay [2] deals with NCI-H460 (KRAS G61H mutant type). Nature of the assay: In vitro growth inhibition (GI50), NCI-H460. The settings on record: Homo sapiens.
Text: as §1, §2, §3, §4, §5, §6, §7, §8

Assay [3] deals with Karpas-299 (expressing NPM-ALK fusion gene). Nature of the assay: In vitro growth inhibition (GI50), Karpas-299. The settings on record: Homo sapiens; Karpas-299, NPM-ALK.
Text: as §1, §2
Human non-small cell lung cancer cell line NCI-H2228 (expressing EML4-ALK fusion gene, ATCC) and human anaplastic large cell lymphoma cell line Karpas-299 (expressing NPM-ALK fusion gene, ATCC) were cultured in complete medium comprising 1×RPMI1640 (10% FBS), respectively. Neuroblastoma cell line SH-SY5Y (expressing ALK F1174L mutant protein, Shanghai Cell Bank, Chinese Academy of Sciences) was cultured in MEM complete medium (1×MEM, 10% FBS, 1% NEAA, 1 mM sodium pyruvate).
as §4, §5, §6, §7
Tumor cell growth inhibition test was performed by selecting representative compounds (compounds 4, 11, 12, 16, 27, 68, 71, 77, 79, 89 and 116 of the present invention). The initial concentration of the compound was 5,000 nM, then it was serially diluted by 2-fold or 10-fold to 0.01 nM. The GI50 value of each test compound was calculated according to the GI50 assay and calculation method. The experiments were repeated 1 to 3 times, and data were subjected to biological statistical analysis.

Turning to `CC(C)(C)c1cc(NC(=O)Nc2ccc(-n3cnc4cc(O)ccc43)cc2)no1` [Compound 4, 1-(5-tert-butyl-isoxazol-3-yl)-3-[4-(5-hydroxy-benzimidazol-1-yl)-phenyl]-urea], the GI50 in assay [1] and in assay [2] was more than 2500 nM each time.
As for `CC(C)(C)c1cc(NC(=O)Nc2ccc(-n3cnc4cc(OCCO)ccc43)cc2)no1` [Compound 11, 1-(5-tert-butyl-isoxazol-3-yl)-3-{4-[5-(2-hydroxy-ethoxyl)-benzimidazol-1-yl]-phenyl]-urea], the GI50 in assay [1] and in assay [2] was more than 2500 nM each time.
As to `CC(C)(C)c1cc(NC(=O)Nc2ccc(-n3cnc4cc(OCCN5CCOCC5)ccc43)cc2)no1` [Compound 16, 1-(5-tert-butyl-isoxazol-3-yl)-3-{4-[5-(2-morpholin-4-yl-ethoxyl)-benzimidazol-1-yl]-phenyl}-urea], the GI50 in assay [1], in assay [2] and in assay [3] was more than 2500 nM throughout.
For `CC(C)(C)c1cc(NC(=O)Nc2ccc(-n3cnc4ccc(OCCN5CCOCC5)cc43)cc2)no1` [Compound 27, 1-(5-tert-butyl-isoxazol-3-yl)-3-{4-[6-(2morpholin-4-yl-ethoxyl)-benzimidazol-1-yl]-phenyl}-urea], the 50% growth inhibitory concentration (GI50) in assay [1] and in assay [2] was more than 2500 nM in each case.
Regarding `CC(C)(C)c1cc(NC(=O)Nc2ccc(-n3cnc4ccccc43)cc2)[nH]n1` [Compound 68, 1-(4-benzimidazol-1-yl-phenyl)-3-(5-tert-butyl-2H-pyrazol-3-yl)-urea], the GI50 (commonly the concentration at which growth is held to half of that of the control) in assay [1] was more than 2500 nM; in assay [2], more than 2500 nM; in assay [3] it was 1880 nM.
As for `COc1ccc2c(c1)ncn2-c1ccc(NC(=O)Nc2cc(C(C)(C)C)n[nH]2)cc1` [Compound 71, 1-(5-tert-butyl-2H-pyrazol-3-yl)-3-[4-(5-methoxyl-benzimidazol-1-yl)-phenyl]-urea], the GI50 in assay [1], in assay [2] and in assay [3] was more than 2500 nM in each case.
Turning to `COCCOc1ccc2c(c1)ncn2-c1ccc(NC(=O)Nc2cc(C(C)(C)C)n[nH]2)cc1` [Compound 77, 1-(5-tert-butyl-2H-pyrazol-3-yl)-3-{4-[5-(2-methoxyl-ethoxyl)-benzimidazol-1-yl]-phenyl}-urea], the GI50 in assay [1], in assay [2] and in assay [3] was more than 2500 nM throughout.
With `CC(C)(C)c1cc(NC(=O)Nc2ccc(-n3cnc4cc(OCCO)ccc43)cc2)[nH]n1` [Compound 79, 1-(5-tert-butyl-2H-pyrazol-3-yl)-3-{4-[5-(2-hydroxy-ethoxyl)-benzimidazol-1-yl]-phenyl]urea], the GI50 in assay [1], in assay [2] and in assay [3] was more than 2500 nM each time.
Consider `CC(C)(C)c1cc(NC(=O)Nc2ccc(-n3cnc4cc(OCCN5CCOCC5)ccc43)cc2)[nH]n1` [Compound 89, 1-(5-tert-butyl-2H-pyrazol-3-yl)-3-{4-[5-(2-morpholin-4-yl-ethoxyl)-benzimidazol-1-yl]-phenyl}-urea], for which the GI50 in assay [1], in assay [2] and in assay [3] was more than 2500 nM in each case.
Take `CC(C)(C)c1cc(N)n(C(=O)Nc2ccc(-n3cnc4ccccc43)cc2)n1` [Compound 116, 5-amino-3-tert-butyl-pyrazol-1-carboxylic acid (4-benzimidazol-1-yl-phenyl)-amide]: the GI50 in assay [1], in assay [2] and in assay [3] was more than 2500 nM throughout.
